Earlier results in patent publication US8034844B2, “Compositions having a high antiviral efficacy” (The Dial Corporation, priority 2006, dated 2011).

Tested on: rhinoviral infections
Conditions: vs placebo users

II [iodine]
Incidence of colds in users: significantly fewer colds than placebo users
